Here are results for five molecules from patent US9067923B2, “Substituted quinoxalines” (Kyowa Hakko Kirin Co., Ltd., priority 2011, dated 2015).

The subject of one series is CYP3A4. As to the kind of experiment: Induction of CYP3A4 using HepaRG cells (midazolam metabolizing activity). The format is in vitro ADME. To be noted: 1 μmol/L test compound, 72 hours, 1'-hydroxymidazolam formation relative to DMSO negative control. As for the experimental part:
CYP3A4-inducing activity was evaluated using HepaRG cells (Biopredic international). HepaRG cells were suspended in a medium at a concentration of 0.72×10^6 cells/mL and added in a volume of 100 μL to each well of a 96-well collagen coated plate (Biopredic international). The medium used for seeding HepaRG cells was HepaRG Thawing and Seeding Medium 670 (Biopredic international) and the medium used during treatment with a test compound was HepaRG Serum-free Induction Medium 650 (Biopredic international). Three days after the seeding of HepaRG cells, treatment with a test compound was started. After 200 μL of HepaRG Serum-free Induction Medium 650 was added to each well of the 96-well, collagen plate, a test compound dissolved in dimethylsulfoxide (DMSO) was added in a volume of 0.5 μL to each well so that the final concentration was 1 μmol/L. The well to which only DMSO was added was used as a negative control. The medium in the wells containing the test compound was replaced every 24 hours and the treatment with the test compound was continued for 72 hours. The fourth day after the start of the treatment with the test compound, midazolam, which is a typical substrate for CYP3A4, was added and CYP3A4-inducing activity was evaluated by measuring changes in the metabolic activity. The medium was removed by suction and each well was washed twice with PBS (150 μL/well) warmed to 37° C. HepaRG Serum-free Induction Medium 650 containing 20 μmol/L midazolam was warmed to 37° C. and added in a volume of 100 μL to each well. The plate was incubated in a CO2 incubator for 2 hours. At the end of the reaction, 70 μL of the reaction medium was recovered from each well and mixed with 70 μL of a methanol solution containing an internal standard (propranolol, 2 μmol/L). The mixture was centrifuged (at 5000×g at 4° C. for 10 minutes) and the supernatant was used as an analysis sample. The midazolam metabolizing activity was evaluated by measuring the amount of a produced metabolite by CYP3A4, 1′-hydroxymidazolam, by means of a liquid chromatograph-tandem mass spectrometry (LC-MS/MS). Agilent 1100 series (Agilent technologies) was used as the LC device, API2000 (AB sciex) was used as the MSMS device, and HTC PAL (CTC analytics) was used as the autosampler. CAPCELL PAK C18 ACR column (3 μm, 3 mm (I. D.)×35 mm, purchased from Shiseido Co., Ltd.) was used as the analytical column. The mobile phase A was 10 mmol/L aqueous ammonium acetate solution and the mobile phase B was methanol. The gradient conditions were 0 min (B=30%), 0.2 min (B=30%), 2.2 min (B=95%), 4 min (B=95%), 4.01 min (B=30%), 5 min (B=30%). The flow rate was 0.6 mL/min and the sample injection volume was 30 μL. The ions were detected by atmospheric pressure ionization mode using the MSMS device. The detection was performed by multiple reaction monitoring and the 1′-hydroxy midazolam ions were detected at m/z (precursor ion>product ion)=342.1>168.2.
The fold induction by each test compound was determined by using formula A2 below, which is for calculating the fold induction as the ratio of the metabolic activity in the test compound-treatment group to that of the negative control group (DMSO-treatment group).

Series [1] deals with production of kynurenine in human gastric cancer cell line KATO-III. As to the kind of experiment: Inhibitory activity on the production of kynurenine (IFN-γ-treated KATO-III cells). The class given is cell-based. Particulars: 10 μmol/L test compound, KATO-III cells treated with IFN-γ, 96 hours. As for the experimental part: This assay was performed by a modification of the method described in J. Biol. Chem., vol. 263, pp. 2041-2048 ([…]). For culture of the human gastric cancer cell line […], RPMI 1640 (GIBCO, 11875) supplemented with 10 vol % FBS (GIBCO, 10091-148, lot. 665285) was used. One μL of a test substance in a DMSO solution was diluted with 199 μL of the culture medium and placed in wells of a 384-well plate (10 μL/well). Next, IFN-γ (Sigma, I-3265) was added to a fresh culture medium to a concentration of 31.25 ng/mL, and KATO-III cells were suspended at 50,000 cells/mL in the culture medium. Forty μL of the suspension was added to each well (2,000 cells/well) and cultured under 5% CO2 at 37° C. for 96 hours. The final concentration of DMSO was limited to 0.1 vol % or less so that DMSO itself may not affect the kynurenine concentration measured in this assay. After the culture, 10 μL of a 30 w/v % aqueous trichloroacetic acid solution was added to each well, and incubation was performed at 65° C. for 30 minutes. The plate was centrifruged at 2,500×g for 5 minutes and 15 μL of the supernatant in each well was transferred into another 384-well plate. To the transferred supernatant, 15 μL of a 2 w/v % solution of p-dimethylaminobenzaldehyde in acetic acid was added, incubation was performed at 65° C. for 20 minutes and the absorbance was measured at 480 nm.
Sample: the absorbance value of the well to which DMSO solution containing a test substance was added and in which the cells were treated with IFN-γ.
Blank: the absorbance value of the well to which DMSO not containing a test substance was added and in which the cells were treated with IFN-γ.
Control: the absorbance value of the well to which DMSO not containing a test substance was added and in which the cells were not treated with IFN-γ.
The inhibition % of each test compound was calculated by formula A1.
In this assay, the expression of IDO in KATO-III cells is induced by IFN-γ treatment, and kynurenine in the culture medium is quantified. The kynurenine concentration in a culture medium is known to increase in proportion to the enzymatic activity of intracellular IDO (for example, J. Biol. Chem., vol. 263, pp. 2041-2048 (1988)). […] The production of kynurenine is known to be inhibited by IDO inhibitors (for example, J. Clin. Invest., vol. 117, No. 5, pp. 1147-1154 ([…])), and thus it is speculated that compounds (I) also have an inhibitory effect on IDO.

For `COCCS(=O)(=O)Nc1nc2ccccc2nc1OC(c1ccc(-c2noc(C)n2)nc1)C(F)(F)F` (stereo not shown) [Compound 27, 2-methoxy-N-(3-(2,2,2-trifluoro-1-(6-(5-methyl-1,2,4-oxadiazol-3-yl)pyridin-3-yl)ethoxy)quinoxalin-2-yl) ethanesulfonamide], in the series on CYP3A4, the Fold induction is 1.21.

On to `COCCS(=O)(=O)Nc1nc2ccccc2nc1O[C@H](c1ccc(-c2noc(C3CC3)n2)nc1)C(F)(F)F` [Compound 37, (R)-N-(3-(1-(6-(5-cyclopropyl-1,2,4-oxadiasol-3-yl)pyridin-3-yl)-2,2,2-trifluoroethoxy)quinoxalin-2-yl)-2-methoxyethanesulfonamide], for which the Fold induction with CYP3A4 came out at 1.33.

The inhibition is the drop in the measured response relative to a control, in per cent. Higher therefore signals strong suppression. On to `CCCS(=O)(=O)Nc1nc2ccccc2nc1OC(c1ccc(-c2noc(C3CC3)n2)nc1)C(F)(F)F` (stereo not shown) [Compound 25, N-(3-(1-(6-(5-cyclopropyl-1,2,4-oxadiazol-3-yl)pyridin-3-yl)-2,2,2-trifluoroethoxy)quinoxalin-2-yl)propane-1-sulfonamide], for which the inhibition at 10 µM in series [1] is at least 80%. Moreover, the Fold induction in the series with CYP3A4 was 1.41.

`CCCS(=O)(=O)Nc1nc2ccccc2nc1O[C@H](c1ccc(-c2noc(C)n2)nc1)C(F)(F)F` [Compound 28, (R)-N-(3-(2,2,2-trifluoro-1-(6-(5-methyl-1,2,4-oxadiaxol-3-yl)pyridin-3-yl)ethoxy)quinoxalin-2-yl)propane-1-sulfonamide] gave a Fold induction with CYP3A4 of 1.27.

For the molecule `COCCS(=O)(=O)Nc1nc2ccccc2nc1O[C@H](c1ccc(-c2cnco2)nc1)C(F)(F)F` [Compound 30, (R)-2-methoxy-N-(3-(2,2,2-trifluoro-1-(6-(oxazol-5-yl)pyridin-3-yl)ethoxy)quinoxalin-2-yl)ethanesulfonamide], the inhibition at 10 µM in series [1] was at least 80%. Moreover, the Fold induction in the series with CYP3A4 is on record as 1.12.
